Measured values taken from patent US20220242846A1, “ISOINDOLINONE COMPOUNDS” (Monte Rosa Therapeutics AG, priority 2019, published 2022).
Read-outs that look alike come from different tables or passages of the source.

Legend:
[1] = target: GSPT1 (Homo sapiens, UniProt P15170+Q96SW2); assay: Immunofluorescence assay for GSPT1 degradation in CAL-51 cells; assay type: cell-based; parameters: CAL-51 cells were purchased from DSMZ (cat. Number ACC302); endogenous in cells; host or cells: CAL-51 (DSMZ ACC302); settings: compound treatment 6 hours, read-out: Code: activity for GSPT1 degradation (DC50)
Procedure, shortened: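 CAL-51 cells on fibronectin-coated plates treated 6 h with compound (30 μM to 0.1 nM); fixed, stained with anti-GSPT1/Alexa-488, phalloidin and DAPI, imaged by high-content microscopy. Mean GSPT1 intensity per cell normalized to controls; DC50 by non-linear regression.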

[2] = target: T1, Full length wild-type cereblon CRBN (Homo sapiens, UniProt Q96SW2); assay: Fluorescence polarization (FP) assay indicating cereblon binding; settings: CRBN 80.0 nM, fluorescent probe 5 nM, FP measured after 12 hours; read-out: rFP IC50
T1 construct: Full length wild-type cereblon CRBN (80.0 nM, 10 μL) was incubated in assay buffer
Procedure, shortened: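 Full-length wild-type human CRBN (80.0 nM) preincubated 30 min at room temperature with compound (12-point curve, 300-0.937 or 3000-9.3 nM) in HEPES pH 8.0, NaCl, TCEP, Tween 20. Thalidomide-based Cy5-type probe then added at 5 nM final; FP read after 12 h (ex 590, em 675 nm), normalized to DMSO, IC50 derived.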

[3] = test system: Human mammary epithelial cells (HMEC) engineered to express EGFP alone (non myc); assay: 3D spheroid assay, non myc-HMEC (CellTiterGlo3D viability); assay type: cell-based; settings: 120 h, 3D spheroids, 5 days with compound, read-out: Code: EC50 value in the non myc-HMEC assay
Description: (§1) 3D Spheroid Experiments—HMEC
(§2) Human mammary epithelial cells (HMEC) were engineered to express either c-myc tagged with EGFP or EGFP alone (non myc) (analogous but distinct from Kessler J D et al, Science. 2012 Jan. 20; 335(6066):348-53. doi: 10.1126/science.1212728; Hsu T Y et al, Nature. 2015 Sep. 17; 525(7569):384-8. doi: 10.1038/nature14985). The engineered cells were seeded at 1000 (myc) or 4000 (non myc) cells/well in a 384 ultra-low attachment plate in a total volume of 40 µL, HMEC cell culture media (DMEM/F12+10% HI-FBS+15 mM HEPES+0.5 ug/ml Hydrocortisone+10 ug/ml Insulin+20 ng/ml EGF). Plates were spun at 1200 rpm for 5 minutes at room temperature to ensure that cells have gathered in the middle of the well and incubated at 37° C. for 48 hrs before firing with compounds. On Day 2 (48 h post seeding) cells were imaged (brightfield and EGFP fluorescence) using the Celigo imaging cytometer prior to firing compounds. For primary screens, compounds were added at three concentrations (1.25, 10 and 30 uM) in a volume of 120 nL using the ECHO acoustic dispenser and spun at 2000 rpm for 2 minutes at room temperature before incubating at 37° C. for 5 days. […] On Day 7, prior to measuring cell viability using CellTiterGlo3D, cells were imaged (brightfield and EGFP fluorescence) on the Celigo imaging cytometer. The CellTiterGlo3D reagent is added at 30uL/well and incubated at room temperature for 30mins After 30mins of incubation, luminescence readings were recorded using the Perkin Elmer EnVision reader.

[4] = test system: Human mammary epithelial cells (HMEC) engineered to express c-myc tagged with EGFP; assay: 3D spheroid assay, myc-HMEC (CellTiterGlo3D viability); assay type: cell-based
Description: as §1, §2

[5] = Homo sapiens, HMEC, 120 h, 3D spheroids, 5 days with compound, read-out: Code: EC50 value in the myc-HMEC assay

Sequence of GSPT1 (P15170 whole entry): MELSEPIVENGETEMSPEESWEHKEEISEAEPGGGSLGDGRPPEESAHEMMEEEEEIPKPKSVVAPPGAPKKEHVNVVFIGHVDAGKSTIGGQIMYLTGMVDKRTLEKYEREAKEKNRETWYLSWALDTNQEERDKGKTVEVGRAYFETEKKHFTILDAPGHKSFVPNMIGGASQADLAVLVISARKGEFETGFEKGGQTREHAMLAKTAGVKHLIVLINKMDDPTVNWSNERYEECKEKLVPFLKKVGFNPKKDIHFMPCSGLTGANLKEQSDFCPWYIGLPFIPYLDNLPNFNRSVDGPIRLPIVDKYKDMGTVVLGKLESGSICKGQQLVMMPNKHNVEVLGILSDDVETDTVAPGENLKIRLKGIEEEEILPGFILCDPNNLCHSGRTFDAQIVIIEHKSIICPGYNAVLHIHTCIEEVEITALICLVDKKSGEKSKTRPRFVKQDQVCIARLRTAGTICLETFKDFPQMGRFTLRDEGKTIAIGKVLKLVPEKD
Sequence of GSPT1 (Q96SW2 whole entry): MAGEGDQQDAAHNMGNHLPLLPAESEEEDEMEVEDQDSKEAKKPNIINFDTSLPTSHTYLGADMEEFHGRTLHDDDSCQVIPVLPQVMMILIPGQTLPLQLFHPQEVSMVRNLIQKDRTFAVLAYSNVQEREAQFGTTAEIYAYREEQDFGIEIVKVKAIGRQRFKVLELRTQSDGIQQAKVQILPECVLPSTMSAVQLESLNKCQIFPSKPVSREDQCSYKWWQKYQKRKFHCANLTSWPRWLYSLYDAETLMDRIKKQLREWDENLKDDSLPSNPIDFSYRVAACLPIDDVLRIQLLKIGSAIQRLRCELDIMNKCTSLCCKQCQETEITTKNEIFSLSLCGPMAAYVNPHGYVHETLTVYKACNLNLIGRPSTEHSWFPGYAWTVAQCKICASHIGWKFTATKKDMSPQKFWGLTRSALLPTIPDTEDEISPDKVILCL
Sequence of GSPT1 (Q16531 2-1140 partner limits assumed): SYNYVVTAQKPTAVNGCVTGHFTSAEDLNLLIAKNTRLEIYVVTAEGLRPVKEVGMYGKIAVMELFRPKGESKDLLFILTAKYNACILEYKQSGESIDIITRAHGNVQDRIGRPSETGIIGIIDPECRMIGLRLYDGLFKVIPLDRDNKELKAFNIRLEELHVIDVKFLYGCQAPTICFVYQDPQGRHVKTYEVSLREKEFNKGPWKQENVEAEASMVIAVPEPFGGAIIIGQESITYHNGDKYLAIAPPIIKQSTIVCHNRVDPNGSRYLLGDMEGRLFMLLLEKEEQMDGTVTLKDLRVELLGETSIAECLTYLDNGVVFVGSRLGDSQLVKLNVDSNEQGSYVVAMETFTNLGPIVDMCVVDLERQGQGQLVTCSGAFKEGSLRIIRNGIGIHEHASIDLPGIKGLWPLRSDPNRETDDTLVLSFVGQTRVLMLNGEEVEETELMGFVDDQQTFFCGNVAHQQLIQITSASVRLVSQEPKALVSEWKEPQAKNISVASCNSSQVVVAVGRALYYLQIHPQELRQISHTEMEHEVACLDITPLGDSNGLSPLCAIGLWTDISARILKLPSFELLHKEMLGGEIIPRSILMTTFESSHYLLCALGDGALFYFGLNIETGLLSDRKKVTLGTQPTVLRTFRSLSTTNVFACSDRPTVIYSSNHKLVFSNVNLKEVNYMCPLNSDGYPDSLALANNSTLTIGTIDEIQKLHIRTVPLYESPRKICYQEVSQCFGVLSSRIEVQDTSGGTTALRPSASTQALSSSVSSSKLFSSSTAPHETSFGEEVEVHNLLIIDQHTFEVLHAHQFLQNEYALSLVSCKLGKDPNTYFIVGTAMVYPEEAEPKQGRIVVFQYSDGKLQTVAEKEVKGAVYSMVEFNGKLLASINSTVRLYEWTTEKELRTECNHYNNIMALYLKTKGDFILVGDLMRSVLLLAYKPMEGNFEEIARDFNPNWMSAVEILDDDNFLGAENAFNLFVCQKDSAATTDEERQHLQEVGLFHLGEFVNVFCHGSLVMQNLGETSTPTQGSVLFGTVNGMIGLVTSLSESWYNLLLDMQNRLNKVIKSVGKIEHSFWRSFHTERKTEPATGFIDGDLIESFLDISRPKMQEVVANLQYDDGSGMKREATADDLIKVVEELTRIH
T1 sequence (Q96SW2 whole entry): as the sequence (Q96SW2 whole entry) above

Work on `CC(C)(C)NC(=O)NCc1ccc2c(c1)C(=O)N(C1CCC(=O)NC1=O)C2` (stereo not shown) [Compound 10] yielded a DC50 [1] of over 300 nM, an IC50 [2] of 763 nM and an EC50 [3] of over 10000 nM. It also gave an EC50 [4, 5] of over 2000 nM.
In the case of `CC(C)(C)c1ccccc1NC(=O)NCc1ccc2c(c1)C(=O)N(C1CCC(=O)NC1=O)C2` (stereo not shown) [Compound 11], the DC50 [1] is reported as over 300 nM, the IC50 [2] is reported as 1230 nM and the EC50 [3] is reported as over 10000 nM. The EC50 [4, 5] was over 2000 nM.
Molecule `CC(C)NC(=O)NCc1ccc2c(c1)C(=O)N(C1CCC(=O)NC1=O)C2` (stereo not shown) [Compound 12] has a DC50 [1] of over 300 nM, an IC50 [2] of 960 nM and an EC50 [3] of over 10000 nM. It also gave an EC50 [4, 5] of over 2000 nM.
For `CCCCCCNC(=O)NCc1ccc2c(c1)C(=O)N(C1CCC(=O)NC1=O)C2` (stereo not shown) [Compound 13], the DC50 [1] was over 300 nM, the IC50 [2] was 944 nM and the EC50 [3] was over 10000 nM. The EC50 [4, 5] was over 2000 nM.
`CCCNC(=O)NCc1ccc2c(c1)C(=O)N(C1CCC(=O)NC1=O)C2` (stereo not shown) [Compound 14] showed a DC50 [1] of over 300 nM, an IC50 [2] of 1420 nM and an EC50 [3] of over 10000 nM. It also gave an EC50 [4, 5] of over 2000 nM.
Molecule `CCNC(=O)NCc1ccc2c(c1)C(=O)N(C1CCC(=O)NC1=O)C2` (stereo not shown) [Compound 15] has a DC50 [1] of over 300 nM, an IC50 [2] of 902 nM and an EC50 [3] of over 10000 nM. The EC50 [4, 5] was over 2000 nM.
`CCOc1ccc(NC(=O)NCc2ccc3c(c2)C(=O)N(C2CCC(=O)NC2=O)C3)cc1` (stereo not shown) [Compound 16] showed a DC50 [1] of over 300 nM, an IC50 [2] of 817 nM and an EC50 [3] of over 10000 nM. It also gave an EC50 [4, 5] of over 2000 nM.
`COc1ccc(C)cc1NC(=O)NCc1ccc2c(c1)C(=O)N(C1CCC(=O)NC1=O)C2` (stereo not shown) [Compound 17] was tested, and the DC50 [1] was over 300 nM, the IC50 [2] was 514 nM and the EC50 [3] was over 10000 nM. The EC50 [4, 5] was over 2000 nM.
Work on `CCc1ccc(NC(=O)NCc2ccc3c(c2)C(=O)N(C2CCC(=O)NC2=O)C3)cc1` (stereo not shown) [Compound 18] yielded a DC50 [1] of over 300 nM, an IC50 [2] of 552 nM and an EC50 [3] of over 10000 nM. The EC50 [4, 5] was over 2000 nM.
`Cc1c(Cl)cccc1NC(=O)NCc1ccc2c(c1)C(=O)N(C1CCC(=O)NC1=O)C2` (stereo not shown) [Compound 19] gave a DC50 [1] of over 300 nM, an IC50 [2] of 576 nM and an EC50 [3] of over 10000 nM. The EC50 [4, 5] was over 2000 nM.
`Cc1cc(C)cc(NC(=O)NCc2ccc3c(c2)C(=O)N(C2CCC(=O)NC2=O)C3)c1` (stereo not shown) [Compound 20] gave a DC50 [1] of at most 100 nM, an IC50 [2] of 550 nM and an EC50 [3] of over 10000 nM. It also gave an EC50 [4, 5] of 400 to 2000 nM and an EC50 ([4]; myc-HMEC 3D spheroids (compounds with code D and E), 5 days, read-out: EC50) of 555 nM.
Work on `Cc1ccc(NC(=O)NCc2ccc3c(c2)C(=O)N(C2CCC(=O)NC2=O)C3)cc1` (stereo not shown) [Compound 21] yielded a DC50 [1] of over 300 nM, an IC50 [2] of 622 nM and an EC50 [3] of over 10000 nM. For the same molecule, the EC50 [4, 5] was over 2000 nM.
`CCOc1ccccc1NC(=O)NCc1ccc2c(c1)C(=O)N(C1CCC(=O)NC1=O)C2` (stereo not shown) [Compound 22] showed a DC50 [1] of over 300 nM, an IC50 [2] of 393 nM and an EC50 [3] of over 10000 nM. It also gave an EC50 [4, 5] of over 2000 nM.
For `COc1ccc(NC(=O)NCc2ccc3c(c2)C(=O)N(C2CCC(=O)NC2=O)C3)c(C)c1` (stereo not shown) [Compound 23], the DC50 [1] was over 300 nM, the IC50 [2] was 464 nM and the EC50 [3] was over 10000 nM. The EC50 [4, 5] was over 2000 nM.
Molecule `O=C1CCC(N2Cc3ccc(CNC(=O)NCc4ccccc4)cc3C2=O)C(=O)N1` (stereo not shown) [Compound 24] has a DC50 [1] of over 300 nM, an IC50 [2] of 1590 nM and an EC50 [3] of over 10000 nM. For the same molecule, the EC50 [4, 5] was over 2000 nM.
`Cc1cccc(C)c1NC(=O)NCc1ccc2c(c1)C(=O)N(C1CCC(=O)NC1=O)C2` (stereo not shown) [Compound 25] gave a DC50 [1] of over 300 nM, an IC50 [2] of 612 nM and an EC50 [3] of over 10000 nM. The EC50 [4, 5] was over 2000 nM.
Work on `O=C1CCC(N2Cc3ccc(CNC(=O)NCC4CC4)cc3C2=O)C(=O)N1` (stereo not shown) [Compound 26] yielded a DC50 [1] of over 300 nM, an IC50 [2] of 907 nM and an EC50 [3] of over 10000 nM. The EC50 [4, 5] was over 2000 nM.
With `O=C1CCC(N2Cc3ccc(CNC(=O)NCCc4ccccc4)cc3C2=O)C(=O)N1` (stereo not shown) [Compound 27] the DC50 [1] was over 300 nM, the IC50 [2] was 444 nM and the EC50 [3] was over 10000 nM. It also gave an EC50 [4, 5] of over 2000 nM.
